“And” between values parts separate entries of the source, which are not always exact repeats. Identical values can stand only once.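 How tested: cells in 96-well plates exposed to compound for 48 hours at five concentrations. GI50: concentration for 50% inhibition of growth. TGI: total growth inhibition.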
Assays:
Test in all cases: DTP human tumour cell line panel, 48 h
A549 NSCLC = system: A549 NSCLC
MCF7 breast = system: MCF7 breast
NCI-H226 lung = system: NCI-H226 lung
SF-268 CNS = system: SF-268 CNS
U251 CNS = system: U251 CNS
SF-295 CNS = system: SF-295 CNS
SK-OV-3 ovarian = system: SK-OV-3 ovarian
SF-539 CNS = system: SF-539 CNS

Row | SMILES | TGI (A549 NSCLC) [µM] | TGI (MCF7 breast) | TGI (NCI-H226 lung) [µM] | TGI (SF-268 CNS) | TGI (U251 CNS) [µM] | TGI (SF-295 CNS) [µM] | TGI (SK-OV-3 ovarian) [µM] | TGI (SF-539 CNS) [µM] | GI50 (U251 CNS) | GI50 (SF-295 CNS) | GI50 (SK-OV-3 ovarian) | GI50 (SF-539 CNS)
1 | O=C(NCc1cccc(C(F)(F)F)c1)c1cc2sccc2nc1C(F)(F)F | > 100 | > 100 µM | > 100 | > 100 µM | > 100 | > 100 | > 100 | > 100 |  |  |  | 
2 | Cc1cc(=O)n2nc(SCc3ccccc3)sc2n1 | > 100 | > 100 µM | > 100 | > 100 µM | > 100 | > 100 | > 100 | > 100 |  |  |  | 
3 | CC(=O)O[C@@H]1C[C@@]23C[C@@]24CC[C@H](OC2OCC(O)C(O)C2O)C(C)(C)[C@@H]4CC=C3[C@]2(C)C[C@@H]3OC4(C[C@@H](C)[C@@H]3[C@@]12C)OC(O)[C@@]1(C)O[C@@H]41 (stereo partly specified) | > 100 | > 100 µM | > 100 | > 100 µM | > 100 | 80.6 | 62.8 | 41.4 |  |  |  | 
4 | O=[N+]([O-])c1c(Br)cc(Br)c2c1Nc1c(ccc(Cl)c1Cl)S2 | 39.5 | 17.9 µM | 31.6 | 38.6 µM | 35.1 | 39.1 | 43 | 41.2 |  |  |  | 
5 | O=C(/C(=C\C(=O)c1cccs1)c1ccsc1)c1ccc(Br)cc1 | > 100 | > 100 µM | > 100 | > 100 µM | > 100 | > 100 | > 100 | > 100 |  |  |  | 
6 | COc1cccc(CC(C)NCC(O)c2ccc(O)c(O)c2)c1 (stereo unspecified) | > 100 | > 100 µM | 90.2 | > 100 µM | > 100 | > 100 | > 100 | > 100 |  |  |  | 
7 | CC1OC2=N[C@@H]1C(=O)N[C@@H](C(C)C)C1=N[C@H](C(=O)N[C@@H](C(C)C)C3=N[C@H](C(=O)N[C@@H](C(C)C)C4=N[C@H](C(=O)N[C@H]2C(C)C)C(C)O4)C(C)O3)C(C)O1 (stereo partly specified) |  | > 10 µM | > 10 | > 10 µM | > 10 | > 10 | > 10 | > 10 |  |  |  | 
8 | Cc1ccc(C2=NOC(=O)[C@@H]3CCCC[C@@H]23)cc1 |  | > 100 µM | > 100 | > 100 µM | > 100 | > 100 | > 100 | > 100 |  |  |  | 
9 | CCOC(=O)C1(C(=O)OCC)[C@H](c2ccccc2)C2=NO[C@@H]3CCC[C@H]1[C@H]23 | > 100 | > 100 µM | > 100 | > 100 µM | > 100 | > 100 | > 100 | > 100 |  |  |  | 
10 | CCOC(=O)C(=[N+]=[N-])C(=O)Nc1nn2nnnc2c2ccccc12 | > 100 | > 100 µM | > 100 |  | > 100 | > 100 | > 100 | > 100 |  |  |  | 
11 | C/C(=C\c1ccccn1)c1ccccn1 | > 100 | > 100 µM |  | > 100 µM | > 100 | > 100 | > 100 |  |  |  |  | 
12 | CC[N+]1(C)CCC(O)(/C=C/c2ccc(OC)cc2)C(C(=O)/C=C/c2ccc(OC)cc2)C1 (stereo unspecified) | > 58 | > 42.6 µM | > 100 | > 59.7 µM | 33.9 | 39.1 | 36.7 | > 45.7 |  |  |  | 
13 | N#CC(C#N)=C1C(C#N)=C(N)NC12OCCO2 | > 100 | > 100 µM | > 100 | > 100 µM | > 100 | > 100 | > 100 |  |  |  |  | 
14 | Clc1ccc(Cc2nc3ccccc3nc2-c2cccc(Br)c2)cc1 | 35.6 | 11.3 µM | 33.1 | 44.9 µM | 20.9 | 31.2 | 31.2 | 5.23 |  |  |  | 
15 | [Cl][Pt+2][Cl].[NH-]C1CCCCC1[NH-] (stereo unspecified) | > 100 | > 37 µM and > 100 µM and 10.1 µM |  | 56.7 µM and > 100 µM and > 58.3 µM | > 100 | > 100 | > 100 | > 100 | 21 µM and 9.15 µM and 13.2 µM | 6.32 µM and 5.35 µM and 1.06 µM | 18.5 µM and > 80.9 µM and 25.1 µM | 21.6 µM and 6.79 µM and 6.99 µM
16 | NC(=S)N/N=C\c1ccc(OCc2cccc(COc3ccc(/C=N/NC(N)=S)cc3)n2)cc1 | > 100 | > 100 µM | > 100 | > 100 µM | > 100 | > 100 | > 100 | > 100 |  |  |  | 
17 | COc1ccc(N(C)C(=O)N(C)c2ccc([N+](=O)[O-])cc2)cc1 | > 100 | > 100 µM | > 100 | > 100 µM | > 100 |  | 91.5 | 96.6 |  |  |  | 
18 | COc1cc2c(cc1OCCCC(=O)Nc1cc(C(=O)Nc3cc(C(=O)Nc4cc(C(=O)NCCCN(C)C)n(C)n4)n(C)n3)n(C)n1)N=CC1CCCN1C2=O (stereo unspecified) | > 100 | > 100 µM | 48.1 | 89.3 µM | > 100 | 86.6 | > 100 | > 100 |  |  |  | 
19 | CCOP(=O)(OCC)C(Nc1cccc(F)c1)c1ccccc1 (stereo unspecified) | > 100 | > 100 µM | > 100 | > 100 µM | > 100 | > 100 | > 100 | > 100 |  |  |  | 
20 | COc1ccc(/C=c2\[nH]c3nc(=O)c(N4CCOCC4)c(N)n3c2=O)cc1 | > 100 | > 100 µM | > 100 | > 100 µM | > 100 | > 100 | > 100 | > 100 |  |  |  | 
21 | C[C@@H](O)C(=O)N1[C@@H]2CC3CC[C@]2(CS1(=O)=O)C3(C)C | > 100 | > 100 µM | 65.3 |  | > 100 | > 100 | > 100 | > 100 |  |  |  | 
22 | Cc1ccc(C(=O)N/N=C(\N=Nc2cccc(Cl)c2)c2ccc(N(CCC#N)CCC#N)cc2C)cc1 | > 100 | > 100 µM | > 100 |  | > 100 | > 100 | > 100 | > 100 |  |  |  | 
23 | Cc1cccc2c1[nH]c1[nH]c(=O)[nH]c(=O)c12 | > 100 | > 100 µM | > 100 | > 100 µM |  | > 100 | > 100 | > 100 |  |  |  | 
24 | Cn1nc2n(c1=O)CCCN2 | > 100 |  | > 100 | > 100 µM | > 100 | > 100 |  | > 100 |  |  |  | 
25 | C/C(=N\NC(=S)N1CCCCC1)c1cccc(C)n1 | 10.6 |  | 0.4 | 4.23 µM | 11.5 | > 33.4 |  | 0.413 |  |  |  | 
26 | N=C1N(S(=O)(=O)c2ccccc2)[C@@H](Cc2ccccc2)[C@H](c2ccccc2)C1(c1ccccc1)c1ccccc1 | > 100 | > 100 µM |  | > 100 µM | > 100 | > 100 | > 100 | > 100 |  |  |  | 

— PubChem BioAssay (NCI)
